In ChEMBL document CHEMBL3046206, “Synthesis of new 4-(2,5-dimethylpyrrol-1-yl)/4-pyrrol-1-yl benzoic acid hydrazide analogs and some derived oxadiazole, triazole and pyrrole ring systems: a novel class of potential antibacterial, antifungal and antitubercular agents” (Med Chem Res, 2013) one finds MIC and IC50 data, which are given here for nine compounds.

In one assay the test system is Staphylococcus aureus. As to the kind of experiment: Antibacterial activity against Staphylococcus aureus after 18 hr by broth microdilution technique. It counts as functional. Background: Broth dilution looks for growth in wells or tubes with falling amounts of substance.
A further assay deals with Enterococcus faecalis. Description: Antibacterial activity against Enterococcus faecalis after 18 hr by broth microdilution technique. Type of assay: functional.
Another assay has as its system Bacillus subtilis. As to the kind of experiment: Antibacterial activity against Bacillus subtilis after 18 hr by broth microdilution technique. It counts as functional.
For another assay, the system named is Klebsiella pneumoniae. Description: Antibacterial activity against Klebsiella pneumoniae after 18 hr by broth microdilution technique. It counts as functional.
The test system of another assay is Escherichia coli. Description: Antibacterial activity against Escherichia coli after 18 hr by broth microdilution technique. Type of assay: functional.
The subject of a further assay is Pseudomonas aeruginosa. Description: Antibacterial activity against Pseudomonas aeruginosa after 18 hr by broth microdilution technique. It counts as functional.
A further assay relates to Saccharomyces cerevisiae. As to the kind of experiment: Antifungal activity against Saccharomyces cerevisiae after 18 hr by broth microdilution technique. Type of assay: functional.
A further assay relates to Candida tropicalis. Description: Antifungal activity against Candida tropicalis after 18 hr by broth microdilution technique. It counts as functional.
The subject of a further assay is Aspergillus niger. As to the kind of experiment: Antifungal activity against Aspergillus niger after 18 hr by broth microdilution technique. It counts as functional.
Assay [1] relates to Mycobacterium tuberculosis. Description: Antimycobacterial activity against Mycobacterium tuberculosis H37Rv after 21 days by broth dilution method. Type of assay: functional. Conditions: 504 h.
Another assay has as its system Vero. Description: Cytotoxicity against Chlorocebus aethiops (African green monkey) Vero cells after 72 hr by MTT assay. It counts as cell-based. As to conditions: Chlorocebus sabaeus. On the technique in general: Formazan colour is commonly taken as a measure of viable cells.
A further assay concerns A549. As to the kind of experiment: Cytotoxicity against Homo sapiens (human) A549 cells after 72 hr by MTT assay. Conditions: A549, 72 h. Type of assay: cell-based.

≈ marks a conversion by molar mass, not a printed value.

Consider `CC(=O)N1N=C(c2ccc(-n3c(C)ccc3C)cc2)OC1c1ccc(N(C)C)cc1` (stereo not drawn), for which the minimal inhibitory concentration (MIC) (in general, the lowest concentration found to suppress growth) in the assay on Staphylococcus aureus worked out at 31.2 µg/mL (≈ 77.6 µM); in the assay with Enterococcus faecalis it was 31.2 µg/mL (≈ 77.6 µM); against Bacillus subtilis, 16 µg/mL (≈ 39.8 µM); with Klebsiella pneumoniae, 31.2 µg/mL (≈ 77.6 µM); against Escherichia coli it was 500 µg/mL (≈ 1240 µM); with Pseudomonas aeruginosa, 500 µg/mL (≈ 1240 µM). In addition, the MIC turned out to be 31.2 µg/mL (≈ 77.6 µM) in the assay with Saccharomyces cerevisiae, 31.2 µg/mL (≈ 77.6 µM) in the assay with Candida tropicalis, 31.2 µg/mL (≈ 77.6 µM) against Aspergillus niger and 16 µg/mL (≈ 39.8 µM) in [1]. Also, the half-maximal inhibitory concentration (IC50) (as a rule, the concentration needed to halve the response being measured) with Vero is 175 µM; with A549, 186 µM.

With `Cc1ccc(C)n1NC(=O)c1ccc(-n2c(C)ccc2C)cc1`, the minimal inhibitory concentration (MIC) came to 2 µg/mL (≈ 6.51 µM) against Staphylococcus aureus; 16 µg/mL (≈ 52 µM) with Enterococcus faecalis; 16 µg/mL (≈ 52 µM) in the assay with Bacillus subtilis; 62.5 µg/mL (≈ 203 µM) against Klebsiella pneumoniae; 500 µg/mL (≈ 1630 µM) against Escherichia coli; 500 µg/mL (≈ 1630 µM) with Pseudomonas aeruginosa. Further, the MIC was found to be 16 µg/mL (≈ 52 µM) with Saccharomyces cerevisiae, 4 µg/mL (≈ 13 µM) in the assay on Candida tropicalis, 16 µg/mL (≈ 52 µM) in the assay with Aspergillus niger and 2 µg/mL (≈ 6.51 µM) in assay [1]. Besides, the concentration for half-maximal inhibition (IC50) worked out at 230 µM in the assay with Vero and 225 µM with A549.

Turning to `O=C(NNC(=O)c1ccc(-n2cccc2)cc1)c1ccccc1`, the MIC against Staphylococcus aureus is 62.5 µg/mL (≈ 205 µM); against Enterococcus faecalis, 62.5 µg/mL (≈ 205 µM); with Bacillus subtilis it was 16 µg/mL (≈ 52.4 µM); against Klebsiella pneumoniae, greater than 500 µg/mL; in the assay on Escherichia coli it was 31.2 µg/mL (≈ 102 µM); against Pseudomonas aeruginosa, 62.5 µg/mL (≈ 205 µM). Besides, the MIC in the assay on Saccharomyces cerevisiae is 31.2 µg/mL (≈ 102 µM); in the assay with Candida tropicalis it was 31.2 µg/mL (≈ 102 µM); against Aspergillus niger it was 31.2 µg/mL (≈ 102 µM); in [1], 8 µg/mL (≈ 26.2 µM). The half-maximal inhibitory concentration (IC50) stood at 200 µM in the assay with Vero and 215 µM in the assay on A549.

Take `O=C(NNC(=O)c1ccccc1Br)c1ccc(-n2cccc2)cc1`: the MIC in the assay on Staphylococcus aureus was 62.5 µg/mL (≈ 163 µM); with Enterococcus faecalis it was 62.5 µg/mL (≈ 163 µM); with Bacillus subtilis it was 16 µg/mL (≈ 41.6 µM); in the assay on Klebsiella pneumoniae, greater than 500 µg/mL; with Escherichia coli it was 16 µg/mL (≈ 41.6 µM); against Pseudomonas aeruginosa, 16 µg/mL (≈ 41.6 µM). Further, the MIC against Saccharomyces cerevisiae was 31.2 µg/mL (≈ 81.3 µM); in the assay with Candida tropicalis it was 8 µg/mL (≈ 20.8 µM); with Aspergillus niger, 16 µg/mL (≈ 41.6 µM); in assay [1], 8 µg/mL (≈ 20.8 µM). Moreover, the values for the concentration for half-maximal inhibition (IC50) in the assay with Vero and in the assay on A549 were 198 µM and 201 µM, respectively.

On to `O=C(NNC(=O)c1ccc(-n2cccc2)cc1)c1ccc(Br)cc1`, for which the MIC in the assay with Staphylococcus aureus was 62.5 µg/mL (≈ 163 µM); against Enterococcus faecalis it was 31.2 µg/mL (≈ 81.3 µM); with Bacillus subtilis, 16 µg/mL (≈ 41.6 µM); in the assay with Klebsiella pneumoniae, greater than 500 µg/mL; in the assay with Escherichia coli, 16 µg/mL (≈ 41.6 µM); against Pseudomonas aeruginosa, 16 µg/mL (≈ 41.6 µM). Besides, the MIC came out at 31.2 µg/mL (≈ 81.3 µM) against Saccharomyces cerevisiae, 8 µg/mL (≈ 20.8 µM) against Candida tropicalis, 16 µg/mL (≈ 41.6 µM) against Aspergillus niger and 8 µg/mL (≈ 20.8 µM) in [1]. For the same compound, the IC50 came out at 186 µM in the assay on Vero and 201 µM in the assay on A549.

As to `O=C(NNC(=O)c1ccccc1[N+](=O)[O-])c1ccc(-n2cccc2)cc1`, the MIC in the assay on Staphylococcus aureus is 62.5 µg/mL (≈ 178 µM); with Enterococcus faecalis, 31.2 µg/mL (≈ 89.2 µM); against Bacillus subtilis it was 16 µg/mL (≈ 45.7 µM); against Klebsiella pneumoniae, greater than 500 µg/mL; in the assay with Escherichia coli, 31.2 µg/mL (≈ 89.2 µM); in the assay on Pseudomonas aeruginosa, 16 µg/mL (≈ 45.7 µM). The minimum inhibitory concentration (MIC) came to 31.2 µg/mL (≈ 89.2 µM) with Saccharomyces cerevisiae, 31.2 µg/mL (≈ 89.2 µM) against Candida tropicalis, 31.2 µg/mL (≈ 89.2 µM) against Aspergillus niger and 8 µg/mL (≈ 22.8 µM) in assay [1]. Besides, the IC50 in the assay on Vero came out at 182 µM; in the assay with A549, 205 µM.

`O=C(NNC(=O)c1cccc([N+](=O)[O-])c1)c1ccc(-n2cccc2)cc1`: the MIC against Staphylococcus aureus was 62.5 µg/mL (≈ 178 µM); in the assay on Enterococcus faecalis, 62.5 µg/mL (≈ 178 µM); against Bacillus subtilis, 16 µg/mL (≈ 45.7 µM); in the assay with Klebsiella pneumoniae it was greater than 500 µg/mL; against Escherichia coli it was 16 µg/mL (≈ 45.7 µM); with Pseudomonas aeruginosa, 16 µg/mL (≈ 45.7 µM). Further, the MIC was 31.2 µg/mL (≈ 89.2 µM) in the assay on Saccharomyces cerevisiae, 31.2 µg/mL (≈ 89.2 µM) against Candida tropicalis, 31.2 µg/mL (≈ 89.2 µM) in the assay with Aspergillus niger and 8 µg/mL (≈ 22.8 µM) in assay [1]. Moreover, the IC50 was determined as 195 µM with Vero and 203 µM with A549.

On to `O=C(NNC(=O)c1ccc([N+](=O)[O-])cc1)c1ccc(-n2cccc2)cc1`, for which the MIC was 62.5 µg/mL (≈ 178 µM) in the assay with Staphylococcus aureus; 31.2 µg/mL (≈ 89.2 µM) in the assay on Enterococcus faecalis; 16 µg/mL (≈ 45.7 µM) in the assay with Bacillus subtilis; greater than 500 µg/mL with Klebsiella pneumoniae; 16 µg/mL (≈ 45.7 µM) against Escherichia coli; 16 µg/mL (≈ 45.7 µM) against Pseudomonas aeruginosa. In addition, the minimum inhibitory concentration (MIC) in the assay on Saccharomyces cerevisiae was 31.2 µg/mL (≈ 89.2 µM); against Candida tropicalis it was 31.2 µg/mL (≈ 89.2 µM); in the assay on Aspergillus niger it was 31.2 µg/mL (≈ 89.2 µM); in [1], 8 µg/mL (≈ 22.8 µM). In addition, the IC50 with Vero was 190 µM; with A549 it was 198 µM.

Take `O=C(NNC(=O)c1ccc(-n2cccc2)cc1)c1ccc(Cl)cc1`: the MIC against Staphylococcus aureus is 62.5 µg/mL (≈ 184 µM); against Enterococcus faecalis it was 31.2 µg/mL (≈ 92 µM); in the assay on Bacillus subtilis, 16 µg/mL (≈ 47.1 µM); in the assay on Klebsiella pneumoniae, greater than 500 µg/mL; against Escherichia coli, 16 µg/mL (≈ 47.1 µM); with Pseudomonas aeruginosa, 16 µg/mL (≈ 47.1 µM). The minimum inhibitory concentration (MIC) worked out at 31.2 µg/mL (≈ 92 µM) against Saccharomyces cerevisiae, 8 µg/mL (≈ 23.5 µM) in the assay with Candida tropicalis, 31.2 µg/mL (≈ 92 µM) in the assay with Aspergillus niger and 8 µg/mL (≈ 23.5 µM) in [1]. The IC50 in the assay with Vero came to 179 µM; in the assay on A549 it was 185 µM.
